Patent US20240417405A1, “Substituted Spiro Derivatives” (Janssen Pharmaceutica NV, priority 2021, published 2024)

What was measured:
[1] = system: MOLM14 cells; test: Proliferation assay, spheroid-like growth, MOLM14 (MLL-AF9 rearranged); assay type: cell-based, human; settings: Homo sapiens, MOLM-14, 192 h, 8 days, confluence as measure of spheroid size, read-out: spheroid assay_OneTime MOLM14 IC50
Outline: (§1)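 Seed cells at linear-growth densities in low-attachment wells; add test compound at several concentrations, normalized to 0.3% DMSO; incubate 8 days at 37 °C; image spheroids and measure confluence; calculate absolute IC50 against DMSO and reference-compound controls.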

[2] = system: KO-52 cells; test: Proliferation assay, spheroid-like growth, KO-52 (MLL wildtype control cell line); assay type: cell-based, human; settings: Homo sapiens, 192 h, KO-52 control cells, 8 days, confluence as measure of spheroid size; read-out: spheroid assay_OneTime KO-52 IC50
Outline: as §1

[3] = target: T1, menin/MLL (terbium chelate-labeled menin, FITC-MBM1 peptide) (Homo sapiens, UniProt O00255, T541A); test: Menin/MLL homogenous time-resolved fluorescence (HTRF) assay; assay type: binding; settings: 30 min incubation
T1 construct: Menin (a.a 1-610-6xhis tag)
T1 sequence (O00255 with tags, fused parts or gaps T541A): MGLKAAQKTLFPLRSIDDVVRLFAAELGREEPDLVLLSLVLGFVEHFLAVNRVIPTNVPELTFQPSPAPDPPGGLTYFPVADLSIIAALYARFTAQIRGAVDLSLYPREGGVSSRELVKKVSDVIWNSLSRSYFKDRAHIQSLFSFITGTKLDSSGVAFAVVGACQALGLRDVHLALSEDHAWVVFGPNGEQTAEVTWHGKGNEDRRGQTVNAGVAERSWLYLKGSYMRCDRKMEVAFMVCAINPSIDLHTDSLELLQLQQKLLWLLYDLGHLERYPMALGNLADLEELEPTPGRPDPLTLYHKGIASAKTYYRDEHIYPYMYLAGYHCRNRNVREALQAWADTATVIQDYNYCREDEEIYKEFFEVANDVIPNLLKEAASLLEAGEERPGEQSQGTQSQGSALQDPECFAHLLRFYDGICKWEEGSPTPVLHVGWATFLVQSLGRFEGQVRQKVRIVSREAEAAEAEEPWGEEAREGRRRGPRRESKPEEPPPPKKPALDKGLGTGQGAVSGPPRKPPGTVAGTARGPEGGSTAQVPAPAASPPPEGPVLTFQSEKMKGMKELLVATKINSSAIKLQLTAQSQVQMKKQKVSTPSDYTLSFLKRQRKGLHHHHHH
Outline: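 Percent inhibition, calculated from the 520/490 nm HTRF ratio against high and low controls, was fitted for IC50 with a 0.1 nM detection limit. Reactions held 200 pM Tb-menin and 75 nM FITC-MBM1 in pH 7.5 Tris buffer with 0.5% DMSO.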

Structure (SMILES)	IC50 [1]	IC50 [3]	IC50 [2]
CC(C)[C@@H](C1CC2(CCN2CC2COC2)C1)N1CC2(CCN(c3ncnnc3Oc3ccc(F)cc3-c3cncnc3C3CC3)C2)C1 (single isomer, unassigned) [Compound 158]	480 nM	0.8 nM	> 15000 nM
CC(C)C(C1CC(C)(O)C1)N1CC2(CCN(c3ncnnc3Oc3ccc(F)cc3-c3cncnc3C3CC3)C2)C1 (single isomer, unassigned) [Compound 159]	110 nM	0.3 nM	1100 nM
CC(C)[C@@H](C1CC(C)(O)C1)N1CC2(CCN(c3ncnnc3Oc3ccc(F)cc3-c3cncnc3C3CC3)C2)C1 (single isomer, unassigned) [Compound 160]	> 3750 nM	23.2 nM	> 15000 nM
CC(C)[C@H]([C@H]1C[C@@H](NC2CCOCC2)C1)N1CC2(CCN(c3ncnnc3Oc3ccc(F)cc3-c3cncnc3C3CC3)C2)C1 (single isomer, unassigned) [Compound 163]	11 nM	0.1 nM	4370 nM
CC(C)[C@@H]([C@H]1C[C@@H](NC2CCOCC2)C1)N1CC2(CCN(c3ncnnc3Oc3ccc(F)cc3-c3cncnc3C3CC3)C2)C1 (single isomer, unassigned) [Compound 165]	200 nM	0.8 nM	9910 nM
CC(=O)N1CC2(C1)CN([C@H]1C[C@H]([C@@H](C(C)C)N3CC4(CCN(c5ncnnc5Oc5ccc(F)cc5-c5cncnc5C5CC5)C4)C3)C1)C2 (single isomer, unassigned) [Compound 171]	31 nM	0.1 nM	> 15000 nM
CC(=O)N1CCC12CN([C@H]1C[C@@H]([C@@H](C(C)C)N3CC4(CCN(c5ncnnc5Oc5ccc(F)cc5-c5cncnc5C5CC5)C4)C3)C1)C2 (single isomer, unassigned) [Compound 172]	22 nM	0.1 nM	10100 nM
CC(=O)N1CCC12CN([C@H]1C[C@H]([C@@H](C(C)C)N3CC4(CCN(c5ncnnc5Oc5ccc(F)cc5-c5cncnc5C5CC5)C4)C3)C1)C2 (single isomer, unassigned) [Compound 173]	150 nM	0.2 nM	> 15000 nM
CC(=O)N1CCCC12CN([C@H]1C[C@H]([C@@H](C(C)C)N3CC4(CCN(c5ncnnc5Oc5ccc(F)cc5-c5cncnc5C5CC5)C4)C3)C1)C2 (single isomer, unassigned) [Compound 175]	110 nM	0.1 nM	> 15000 nM
CC(=O)N[C@H]1C[C@@H]([C@@H](C(C)C)N2CC3(CCN(c4ncnnc4Oc4ccc(F)cc4-c4nccnc4C4CC4)C3)C2)C1 (single isomer, unassigned) [Compound 177]	37 nM	0.2 nM	8870 nM
CC(=O)N[C@H]1C[C@@H]([C@H](C(C)C)N2CC3(CCN(c4ncnnc4Oc4ccc(F)cc4-c4nccnc4C4CC4)C3)C2)C1 (single isomer, unassigned) [Compound 178]	> 940 nM	108 nM	> 15000 nM
CC(=O)N[C@H]1C[C@@H]([C@@H](C(C)C)N2CC3(CCN(c4ncnnc4Oc4ccc(F)cc4-c4ncncc4C4CC4)C3)C2)C1 (single isomer, unassigned) [Compound 180]	62 nM	0.3 nM	10100 nM
CC(=O)N[C@H]1C[C@@H]([C@H](C(C)C)N2CC3(CCN(c4ncnnc4Oc4ccc(F)cc4-c4ncncc4C4CC4)C3)C2)C1 (single isomer, unassigned) [Compound 181]	> 940 nM	96.9 nM	> 15000 nM
CC(C)[C@@H]([C@H]1C[C@@H](NC(=O)C2CC2)C1)N1CC2(CCN(c3ncnnc3Oc3ccc(F)cc3-c3cnncc3C3CC3)C2)C1 (single isomer, unassigned) [Compound 186]	> 940 nM	5.4 nM	7050 nM
CC(C)[C@H]([C@H]1C[C@@H](N2CCC[C@H](F)C2)C1)N1CC2(CCN(c3ncnnc3Oc3ccc(F)cc3-c3cncnc3C3CC3)C2)C1 (single isomer, unassigned) [Compound 200]	16 nM	0.1 nM	9710 nM
CC(C)[C@H]([C@H]1C[C@H](N2CCC3(C2)CS(=O)(=O)C3)C1)N1CC2(CCN(c3ncnnc3Oc3ccc(F)cc3-c3cncnc3C3CC3)C2)C1 (single isomer, unassigned) [Compound 204]	190 nM	0.3 nM	> 15000 nM
CC(C)[C@H]([C@H]1C[C@@H](N2CCC3(C2)CS(=O)(=O)C3)C1)N1CC2(CCN(c3ncnnc3Oc3ccc(F)cc3-c3cncnc3C3CC3)C2)C1 (single isomer, unassigned) [Compound 205]	39 nM	0.1 nM	8470 nM
CC(C)[C@H]([C@H]1C[C@@H](N2CCOCC2)C1)N1CC2(CCN(c3ncnnc3Oc3ccc(F)cc3-c3cncnc3C3CC3)C2)C1 (single isomer, unassigned) [Compound 208]	29 nM	0.3 nM	9130 nM
CC(C)[C@H]([C@H]1C[C@@H](N2CCC(S(=O)(=O)C(C)C)CC2)C1)N1CC2(CCN(c3ncnnc3Oc3ccc(F)cc3-c3cncnc3C3CC3)C2)C1 (single isomer, unassigned) [Compound 209]	16 nM	0.3 nM	5260 nM

These reach a lower IC50 [1]. Values come first.

IC50 [1]	IC50 [3]	Structure (SMILES)	IC50 [2]
10 nM	0.1 nM	CC(C)[C@H]([C@H]1C[C@@H](N(C)C2CCOCC2)C1)N1CC2(CCN(c3ncnnc3Oc3ccc(F)cc3-c3cncnc3C3CC3)C2)C1 (single isomer, unassigned) [Compound 164]	1410 nM
5 nM	0.1 nM	CC(=O)N1CC2(C1)CN([C@H]1C[C@@H]([C@@H](C(C)C)N3CC4(CCN(c5ncnnc5Oc5ccc(F)cc5-c5cncnc5C5CC5)C4)C3)C1)C2 (single isomer, unassigned) [Compound 170]	8680 nM
9 nM	0.1 nM	CC(=O)N1CCCC12CN([C@H]1C[C@@H]([C@@H](C(C)C)N3CC4(CCN(c5ncnnc5Oc5ccc(F)cc5-c5cncnc5C5CC5)C4)C3)C1)C2 (single isomer, unassigned) [Compound 174]	7400 nM
6 nM	0.1 nM	CC(C)[C@H]([C@H]1C[C@@H](NC(=O)C2CC2)C1)N1CC2(CCN(c3ncnnc3Oc3ccc(F)cc3-c3cnncc3C3CC3)C2)C1 (single isomer, unassigned) [Compound 185]	6040 nM
6 nM	0.2 nM	CC1CN([C@H]2C[C@@H]([C@@H](C(C)C)N3CC4(CCN(c5ncnnc5Oc5ccc(F)cc5-c5cncnc5C5CC5)C4)C3)C2)CCC1O (single isomer, unassigned) [Compound 201]	4240 nM
9 nM	0.2 nM	CC(C)[C@H]([C@H]1C[C@@H](N2CCC[C@@H](F)C2)C1)N1CC2(CCN(c3ncnnc3Oc3ccc(F)cc3-c3cncnc3C3CC3)C2)C1 (single isomer, unassigned) [Compound 206]	7950 nM
3 nM	0.1 nM	CO[C@@H]1CCN([C@H]2C[C@@H]([C@@H](C(C)C)N3CC4(CCN(c5ncnnc5Oc5ccc(F)cc5-c5cncnc5C5CC5)C4)C3)C2)C1 (single isomer, unassigned) [Compound 211]	> 15000 nM
< 2 nM	0.1 nM	CC(C)[C@H]([C@H]1C[C@@H](N2C[C@H](O)C3(CCC3)C2)C1)N1CC2(CCN(c3ncnnc3Oc3ccc(F)cc3-c3cncnc3C3CC3)C2)C1 (single isomer, unassigned) [Compound 214]	3630 nM
2 nM	0.1 nM	CC(C)[C@H]([C@H]1C[C@@H](N2C[C@@H](O)C3(CCC3)C2)C1)N1CC2(CCN(c3ncnnc3Oc3ccc(F)cc3-c3cncnc3C3CC3)C2)C1 (single isomer, unassigned) [Compound 215]	7940 nM
7 nM	0.1 nM	CC(C)[C@H]([C@H]1C[C@@H](N2CCC3(CC2)COC3)C1)N1CC2(CCN(c3ncnnc3Oc3ccc(F)cc3-c3cncnc3C3CC3)C2)C1 (single isomer, unassigned) [Compound 231]	5520 nM
